From patent publication US7795299B2, “Neo-tanshinlactone and analogs as potent and selective anti-breast cancer agents” (The University of North Carolina at Chapel Hill, priority 2004, dated 2010)
≈ marks a conversion by molar mass, not a printed value.

Experiments:
[1] = test system: MCF-7 (estrogen receptor positive breast cancer); assay: In vitro anticancer assay (SRB), MCF-7; format: cell-based, human; settings: for IC50: MCF7, 72 h, read-out: ED50, MCF-7 (ER+)
Protocol: (§1) All stock cultures were grown in T-25 flasks. Freshly trypsinized cell suspensions were seeded in 96-well microtiter plates at densities of 1500-7500 cells per well with compounds added from DMSO-diluted stock. After 3 days in culture, attached cells were fixed with cold 50% trichloroacetic acid and then stained with 0.4% sulforhodamine B (SRB). The absorbency at 562 nm was measured using a microplate reader after solubilizing the bound dye.
as §1, with “Biological assay. All” for “All”, “cultures are” for “cultures were”, “96-well microtitre” for “96-well microtiter”

[2] = test system: MDA-MB-231 (estrogen receptor negative breast cancer); assay: In vitro anticancer assay (SRB), MDA-MB-231; format: cell-based, human; settings: concentration that reduces cell growth by 50%, 3 days in culture, SRB; for IC50: Homo sapiens, MDA-MB-231, 72 h, read-out: ED50, MDA-MB-231 (ER−)
Protocol: as §1
as §1, with “Biological assay. All” for “All”, “cultures are” for “cultures were”, “96-well microtitre” for “96-well microtiter”

[3] = test system: ZR-75-1 (estrogen receptor positive breast cancer); assay: In vitro anticancer assay (SRB), ZR-75-1; format: cell-based, human; settings: Homo sapiens, ZR-75-1, 72 h, concentration that reduces cell growth by 50%, 3 days in culture, read-out: ED50, ZR-75-1 (ER+)
Protocol: as §1
as §1, with “Biological assay. All” for “All”, “cultures are” for “cultures were”, “96-well microtitre” for “96-well microtiter”

[4] = test system: HS 587-T (estrogen receptor negative breast cancer); assay: In vitro anticancer assay (SRB), HS 587-T; format: cell-based, human; settings: concentration that reduces cell growth by 50%, 3 days in culture, printed HS587-1 in Table 4
Protocol: as §1
as §1, with “Biological assay. All” for “All”, “cultures are” for “cultures were”, “96-well microtitre” for “96-well microtiter”

[5] = test system: SK-BR-3 (HER-2-overexpressing breast cancer); assay: In vitro anticancer assay (SRB), SK-BR-3; format: cell-based, human; settings: Homo sapiens, SK-BR-3, 72 h; concentration that reduces cell growth by 50%, 3 days in culture, SRB; read-out: ED50, SK-BR-3 (ER−, HER2+)
Protocol: (§2) In Vitro Anticancer Assay (Nakanishi, Y. et al., J. Med. Chem. 2003, 46, 3185). All stock cultures were grown in T-25 flasks. Freshly trypsinized cell suspensions were seeded in 96-well microtiter plates at densities of 1500-7500 cells per well with compounds added from DMSO-diluted stock. After 3 days in culture, attached cells were fixed with cold 50% trichloroacetic acid and then stained with 0.4% sulforhodamine B (SRB). The absorbency at 562 nm was measured using a microplate reader after solubilizing the bound dye. The mean ED50 is the concentration of agent that reduces cell growth by 50% under the experimental conditions and is the average from at least three independent determinations that were reproducible and statistically significant (FIG. 2). The following human tumor cell lines were used in the assay: A549 (non small cell lung cancer), MCF-7 (estrogen receptor positive breast cancer), ZR-75-1 (estrogen receptor positive breast cancer), MDA-MB-231 (estrogen receptor negative breast cancer), HS 587-T (estrogen receptor negative breast cancer), SK− BR-3 (HER-2-overexpressing breast cancer), A431 (EGFRoverexpressing skin cancer), LN-CaP (AR-dependent prostate cancer), SW620 (colon cancer), PC-3 (prostate cancer), KB (nasopharyngeal carcinoma), KB-VIN (vincristine-resistant KB subline). All cell lines were obtained from the Lineberger Comprehensive Cancer Center (UNC-CH) or from ATCC (Rockville, Md.) and were cultured in RPMI-1640 medium supplemented with 25 mMHEPES, 0.25% sodium bicarbonate, 10% fetal bovine serum, and 100 μg/mL kanamycin.
(§3) Biological assay. All stock cultures are grown in T-25 flasks. Freshly trypsinized cell suspensions were seeded in 96-well microtitre plates at densities of 1500-7500 cells per well with compounds added from DMSO-diluted stock. After 3 days in culture, attached cells were fixed with cold 50% trichloroacetic acid and then stained with 0.4% sulforhodamine B (SRB). The absorbency at 562 nm was measured using a microplate reader after solubilizing the bound dye. The mean ED50 is the concentration of agent that reduces cell growth by 50% under the experimental conditions and is the average from at least three independent determinations that were reproducible and statistically significant. The following human tumor cell lines were used in the assay: A549 (non-small cell lung cancer), MCF-7 (estrogen receptor positive breast cancer), ZR-75-1 (estrogen receptor positive breast cancer), MDA MB-231 (estrogen receptor negative breast cancer), HS 587-T (estrogen receptor negative breast cancer), SK-BR-3 (estrogen receptor negative, HER-2 over-expressing breast cancer), A431 (EGFR over-expressing skin cancer), LN-CaP (AR-dependent prostate cancer), SW620 (colon cancer), PC-3 (prostate cancer), KB (nasopharyngeal carcinoma), KB-VIN (Vincristine resistant KB subline). All cell lines were obtained from the Lineberg Cancer Center (UNC-CH) or from ATCC (Rockville, Md.) and were cultured in RPMI-1640 medium supplemented with 25 mM HEPES, 0.25% sodium bicarbonate, 10% fetal bovine serum, and 100 μg/mL kanamycin.

[6] = test system: A431 (EGFR over-expressing skin cancer); assay: In vitro anticancer assay (SRB), A431; format: cell-based, human; settings: Homo sapiens, A-431, 72 h; concentration that reduces cell growth by 50%, 3 days in culture, SRB; read-out: ED50, A431
Protocol: as §2, §3

SW620 (colon cancer) = assay: In vitro anticancer assay (SRB), SW620; format: cell-based, human; settings: Homo sapiens, SW-620, 72 h; concentration that reduces cell growth by 50%, 3 days in culture, SRB; read-out: ED50, SW620
Protocol: as §2, §3

[7] = test system: KB (nasopharyngeal carcinoma); assay: In vitro anticancer assay (SRB), KB; format: cell-based, human; settings: Homo sapiens, 72 h; concentration that reduces cell growth by 50%, 3 days in culture, SRB; read-out: ED50, KB
Protocol: as §2, §3

[8] = test system: ER+ human breast cancer (MCF-7 and ZR-75-1); assay: Comparison of potency and selectivity against ER+ breast cancer cell lines in vitro; format: cell-based; settings: against ER+ cell lines
Protocol: as §2
as §1, with “Biological assay. All” for “All”, “cultures are” for “cultures were”, “96-well microtitre” for “96-well microtiter”, “dye. The mean ED50 is the concentration of agent that reduces cell growth by 50% under the experimental conditions and is the average from at least three independent determinations that were reproducible and statistically significant. […]” for “dye.”

[9] = test system: several human cancer cell lines; assay: Cytotoxic activity against several human tumor cell lines (panel, overall statements); format: cell-based; settings: several human tumor cell lines, Table 4
Protocol: as §2
as §1, with “Biological assay. All” for “All”, “cultures are” for “cultures were”, “96-well microtitre” for “96-well microtiter”, “dye. […]” for “dye.”

[10] = Homo sapiens, concentration that reduces cell growth by 50%, 3 days in culture, SRB

Structure (SMILES) | IC50 [1, 10] [µg/mL] | IC50 [2] [µg/mL] | IC50 [3] [µg/mL] | melting point [°C] | IC50 [5] [µg/mL] | IC50 [6] [µg/mL] | IC50 (SW620 (colon cancer)) [µg/mL] | IC50 [7] [µg/mL] | ED50, HS 587-T (ER−) [4] [µg/mL] | times better activity than compound 2a and tamoxifen [8] [times] | overall cytotoxic activity (in words) [9] | inhibition at 20 µg/mL ([1]; Homo sapiens, MCF7, at 20 μg/mL (Table 4), read-out: Percent inhibition at the test concentration (bracketed value), MCF-7) [%] | ED50, MCF-7 (ER+) ([1]; concentration that reduces cell growth by 50%, 3 days in culture, SRB) [µg/mL] | ED50, MDA-MB-231 (ER−) [2] [µg/mL]
O=c1oc2c(ccc3ccccc32)c2c1C(O)CO2 (centres unmarked) [Compound 3a, 17-Hydroxy-16,17-dihydro-11,15-dioxa-cyclopenta[a]phenanthren-12-one] | 12.5 (≈ 49.2 µM) | 3.8 (≈ 14.9 µM) | – | 203 to 205 | – | – | – | – | – | – | – | – | – | –
Cc1cccc2c1ccc1c3c(c(=O)oc12)C(O)CO3 (centres unmarked) [Compound 3b, 17-Hydroxy-4-methyl-16,17-dihydro-11,15-dioxa-cyclopenta[a]phenanthren-12-one] | 8.3 (≈ 30.9 µM) | – | > 10 | – | 8 (≈ 29.8 µM) | 3.2 (≈ 11.9 µM) | > 10 | > 10 | – | – | – | – | – | –
O=c1oc2c(cc(Cl)c3ccccc32)c2c1C(O)CO2 (centres unmarked) [Compound 3d, 6-Chloro-17-hydroxy-16,17-dihydro-11,15-dioxa-cyclopenta[a]phenanthren-12-one] | 5.6 (≈ 19.4 µM) | – | > 10 | 150 | 8 (≈ 27.7 µM) | 7.8 (≈ 27 µM) | 4.2 (≈ 14.5 µM) | 9.5 (≈ 32.9 µM) | – | – | – | – | – | –
COc1cc2c3c(c(=O)oc2c2ccccc12)C(O)CO3 (centres unmarked) [Compound 3e, 17-Hydroxy-6-methoxy-16,17-dihydro-11,15-dioxa-cyclopenta[a]phenanthren-12-one] | 5.6 (≈ 19.7 µM) | – | 5.7 (≈ 20.1 µM) | 210 to 212 | 9 (≈ 31.7 µM) | 6.5 (≈ 22.9 µM) | > 10 | 6.8 (≈ 23.9 µM) | – | – | – | – | – | –
O=c1oc2c3ccccc3ccc2c2occc12 [Compound 4a, 11,15-Dioxa-cyclopenta[a]phenanthren-12-one] | > 20 | 10.5 (≈ 44.4 µM) | – | 198 to 200 | – | – | – | – | – | – | – | 17 | – | –
O=c1oc2c3ccccc3c(Cl)cc2c2occc12 [Compound 4d, 6-Chloro-11,15-dioxa-cyclopenta[a]phenanthren-12-one] | 7 (≈ 25.9 µM) | – | > 10 | 150 | > 10 | > 10 | > 10 | > 10 | – | – | – | – | – | –
COc1cc2c3occc3c(=O)oc2c2ccccc12 [Compound 4e, 6-Methoxy-11,15-dioxa-cyclopenta[a]phenanthren-12-one] | 3.4 (≈ 12.8 µM) | – | 8.5 (≈ 31.9 µM) | 194 to 195 | 4 (≈ 15 µM) | 9.5 (≈ 35.7 µM) | 4 (≈ 15 µM) | 9.5 (≈ 35.7 µM) | – | – | – | – | – | –
C[C@H]1COC2=C1C(=O)C(=O)c1c2ccc2c1CCCC2(C)C [cryptotanshinone, reference compound] | 0.41 (≈ 1.38 µM) | 0.16 (≈ 0.54 µM) | – | – | – | – | – | – | – | – | – | – | – | –
Cc1coc2c1C(=O)C(=O)c1c-2ccc2c(C)cccc12 [tanshinone I, reference compound] | – | – | – | – | – | – | – | – | – | – | – | – | 0.82 (≈ 2.97 µM) | 0.75 (≈ 2.71 µM)
Cc1coc2c1C(=O)C(=O)c1c-2ccc2c1CCCC2(C)C [tanshinone IIA, reference compound] | 0.38 (≈ 1.29 µM) | 0.7 (≈ 2.38 µM) | – | – | – | – | – | – | – | – | – | – | – | –

Further lines, with some results ahead:

IC50 [1, 10] [µg/mL] | IC50 [2] [µg/mL] | IC50 [3] [µg/mL] | melting point [°C] | IC50 [5] [µg/mL] | IC50 [6] [µg/mL] | IC50 (SW620 (colon cancer)) [µg/mL] | IC50 [7] [µg/mL] | Structure (SMILES) | ED50, HS 587-T (ER−) [4] [µg/mL] | times better activity than compound 2a and tamoxifen [8] [times] | overall cytotoxic activity (in words) [9] | inhibition at 20 µg/mL ([1]; Homo sapiens, MCF7, at 20 μg/mL (Table 4), read-out: Percent inhibition at the test concentration (bracketed value), MCF-7) [%] | ED50, MCF-7 (ER+) ([1]; concentration that reduces cell growth by 50%, 3 days in culture, SRB) [µg/mL] | ED50, MDA-MB-231 (ER−) [2] [µg/mL]
4 (≈ 16 µM) | 10.3 (≈ 41.2 µM) | 4 (≈ 16 µM) | 205 to 207 | – | – | – | – | Cc1coc2c1c(=O)oc1c3ccccc3ccc21 [Compound 2a, 17-Methyl-11,15-dioxa-cyclopenta[a]phenanthren-12-one] | 7.5 (≈ 30 µM) | – | – | – | – | –
0.45 (≈ 1.62 µM) | 10.3 (≈ 37 µM) | 0.18 (≈ 0.647 µM) | 145 to 147 | 0.1 (≈ 0.359 µM) | > 10 | > 10 | > 10 | CCc1cccc2c1ccc1c3occ(C)c3c(=O)oc21 [Compound 2c, 4-Ethyl-17-methyl-11,15-dioxa-cyclopenta[a]phenanthren-12-one] | 10 (≈ 35.9 µM) | 10 | – | – | – | –
5 (≈ 17.6 µM) | – | 8.6 (≈ 30.2 µM) | 220 to 221 | 4.5 (≈ 15.8 µM) | 8 (≈ 28.1 µM) | > 10 | > 10 | Cc1coc2c1c(=O)oc1c3ccccc3c(Cl)cc21 [Compound 2d, 6-Chloro-17-methyl-11,15-dioxa-cyclopenta[a]phenanthren-12-one] | – | – | did not show strong activity | – | – | –
5 (≈ 17.8 µM) | – | > 10 | 203 to 205 | 8.6 (≈ 30.7 µM) | 9.5 (≈ 33.9 µM) | 9 (≈ 32.1 µM) | > 10 | COc1cc2c3occ(C)c3c(=O)oc2c2ccccc12 [Compound 2e, 6-Methoxy-17-methyl-11,15-dioxa-cyclopenta[a]phenanthren-12-one] | – | – | did not show strong activity | – | – | –
5 (≈ 17.7 µM) | 5 (≈ 17.7 µM) | – | 163 to 165 | – | 3 (≈ 10.6 µM) | – | – | CCc1cccc2c1ccc1c3c(c(=O)oc12)C(O)CO3 (centres unmarked) [Compound 3c, 4-Ethyl-17-hydroxy-16,17-dihydro-11,15-dioxa-cyclopenta[a]phenanthren-12-one] | – | – | – | – | – | –
5.5 (≈ 22 µM) | – | > 10 | 220 to 222 | 8.5 (≈ 34 µM) | 8.3 (≈ 33.2 µM) | > 10 | > 10 | Cc1cccc2c1ccc1c3occc3c(=O)oc21 [Compound 4b, 4-Methyl-11,15-dioxa-cyclopenta[a]phenanthren-12-one] | – | – | – | – | – | –
> 10 | > 10 | – | 173 to 174 | – | – | – | – | CCc1cccc2c1ccc1c3occc3c(=O)oc21 [Compound 4c, 4-Ethyl-11,15-dioxa-cyclopenta[a]phenanthren-12-one] | – | – | – | – | – | –
